The conditions of data set [1]: aqueous pH 7 buffer; cited from earlier work.
Data set [2] in a line: Example 13: progesterone dissolution from cut devices in 250 mL acetone, HPLC/UV. The conditions noted are these: individual device. The class given is physicochemical. As to the method: The combined mass of each reagent bottle and solid contents was recorded (Mi) and each bottle was then charged with 250 mL of acetone. Reagent bottles were heated to 35° C. in a temperature controlled water bath and stirred using a submersible multipoint stirrer plate.
Reagent bottles were removed from the water bath at times 2, 4.5 and 47.5 hours after the commencement of stirring. All residual water from the temperature controlled water bath was removed from the outside of the container. The total mass of the dissolution vessel, drug product and drug product solution was then recorded (Mf) and the reagent bottles were left at ambient temperature. The initial mass (of components prior to solvent addition) was subtracted from the final mass to give the solvent mass at each time point.
The temperature of each solution of device extracts was recorded at 2.5, 5 and 48 hours after stirring commenced and a 2 mL aliquot of solution was sampled immediately following the temperature reading. The aliquot of extracts were diluted in 100 mL of 50:50 acetonitrile/water and a sample of the diluted solution was filtered into HPLC vials
The mass of solvent was converted to its corresponding volume using the literature density of acetone and equation below.
A progesterone dissolution profile and final content for each implant was be obtained using a HPLC/UV method for progesterone quantification in IVD and CIDR

In the case of `CC(=O)[C@H]1CC[C@H]2[C@@H]3CCC4=CC(=O)CC[C@]4(C)[C@H]3CC[C@]12C` [Progesterone], the solubility of progesterone in data set [1] was less than 0.1 g/L. Also, the figures for the “Dissolution of progesterone, percentage of the dose concentration (1.38 g)” value in data set [2] (2.5 Hours), in data set [2] (5 Hours) and in data set [2] (48 Hours) were 100.8%, 104.1% and 103.2%, respectively.

The values are drawn from patent US20190290474A1, “DRUG RELEASE DEVICE AND USE” (JUROX PTY LTD, priority 2016, published 2019).
